In patent US20140287120A1, “ORGANIC COMPOUNDS” (Givaudan S.A, priority 2011, published 2014):

Assay: Taste panel: intensity of umami and salt taste of solution B compared with reference solution A
Conditions: 10 ppm in a solution of 0.5% NaCl and 0.03% MSG, compared with solution A without compound; average rating of 4 flavourists; scale -3 (much lower than base) to 3 (much higher than base), 0 = same as base, 1 = slightly higher than base
Procedure: Two solutions were prepared:
A a solution of 0.5% NaCl and 0.03% MSG
B a solution of 0.5% NaCl and 0.03% MSG and 10 ppm Example 1 compound
The samples were tasted by a small group of flavourists (2 male, 2 female, aged between 30 and 60). The intensity of the umami and salt taste of solution B was compared with that of the reference (solution A) and rated according to the following intensity scale:
Taste effect much lower than base: −3
Taste effect lower than base: −2
Taste effect slightly lower than base: −1
Taste effect same as base: 0
Taste effect slightly higher than base: 1
Taste effect higher than base: 2
Taste effect much higher than base: 3
The results (average of rating given by the flavourists) were: […]

SMILES: CC(N)(CCC(=O)O)C(=O)O (racemic) [DL-2-methylglutamic acid, DL-2-Methylglutamic Acid]
- Intensity Taste Salt (NaCl): 1.00
- Intensity Taste Umami: 0.00
